Laboratory results as given in patent US20020012943A1, “ELECTROCHEMICAL PROBES FOR DETECTION OF MOLECULAR INTERACTIONS AND DRUG DISCOVERY” (priority 1997, published 2002).
Where no end group is shown, it is not given here. The star is where a group is joined. Biotin = O=C1N[C@H]2[C@H](CS[C@H]2CCCCC(=O)*)N1

Experiments:
[1] = target: T1, GST-Src SH3 fusion protein (Homo sapiens, UniProt P12931); experiment: Cyclic voltammetry of electrochemically-labeled peptide binding to a GST-Src SH3 coated electrode; details: for specific cyclic voltammetry signal at GST-Src SH3 electrode: electrochemically-labeled peptide plus mediator, described in present tense
T1 construct: made in house
Experimental: Tin-doped indium oxide electrodes were purchased (Delta Technologies) as 2 cm^2 square glass slides and prepared for use as follows. The electrode was cleaned by sonication treatment in a laboratory sonicator by sequential treatment in Alkonox, neat isopropyl alcohol, distilled and deionized water (three times), and finally the desired buffer; each sonication treatment having been performed for 10 min. The cleaned electrodes were then immersed in a 5 mM solution of 1,12-dodecadicarboxylic acid and incubated at room temperature for 48-72 hours, followed by rinsing the electrodes with hexane (Analytical grade).
(§1) Protein crosslinking to the prepared electrode was then performed as follows. A 50 μL aliquot of a 5 mM solution of 1-(3-dimethylaminopropyl)-3-ethylcarbodiimide was placed on one side of the electrode and dried at room temperature. […] of a 4 mg/mL solution of a fusion protein in phosphate buffered saline (PBS)/0.1% Tween 20 was placed on the surface of the dried electrode previously treated with carbodiimide and incubated at 4° C. overnight to allow crosslinking to proceed. After this incubation, electrodes were washed once with a solution of 100 mM Tris-HCl (pH8.0)/100 mM NaCl for 5 min. and kept in PBS at 4° C. until used.
(§2) Cyclic voltammograms were collected using an EG&G PAR 273A potentiostat/galvanostat with a single compartment voltammetric cell equipped with a modified tin-doped indium oxide (ITO) working electrode (area=0.32 cm^2), platinum (Pt)-wire counter electrode and silver/silver chloride (Ag/AgCl) reference electrode (see Johnston et al, 1994, Inorg. Chem. 33: 6388-6390). An example of such a voltammogram is shown in FIG. 7 and was generated under the following conditions. A sample containing 50 mM Ru(NH3)6^3+ and 20 mM Ru(NH3)5^3+-labeled peptide dissolved in buffered aqueous solutions containing 50 mM sodium phosphate buffer (pH 6.8)/700 mM NaCl (having a total sodium ion concentration of 780 mM) was scanned at a rate of 15 mV/s. After scans with the electrochemically labeled peptide, the electrode was rinsed with the same 50 mM sodium phosphate buffer solution, and then with 50 mM Ru(NH3)6^3+ or an unlabeled peptide solution containing 50 mM Ru(NH3)6^3+. Cyclic voltammograms were obtained with 50 mM Ru(NH3)6^3+ after washing. […] A freshly prepared electrode was used for each experiment and a background scan of buffer alone was collected for each electrode and subtracted from subsequent scans.
The electrochemical analysis apparatus and methods of the invention were used to detect and analyze the specific binding interaction between the Src SH3 domain and a specific binding SH3 peptide as follows. […]

streptavidin = streptavidin (Streptomyces avidinii, UniProt P22629); experiment: Cyclic voltammetry of electrochemically-labeled peptide binding to a streptavidin coated electrode; details: electrochemically-labeled peptide plus mediator; described in present tense
Experimental: as §1, §2
Electrodes are prepared by coating with the GST-Src SH3 fusion protein described above or with streptavidin using the procedures described in Example 2. […]

MDM2 = MDM2 (Homo sapiens, UniProt Q00987); experiment: Cyclic voltammetry of electrochemically-labeled peptide binding to an MDM2 coated electrode; details: electrochemically-labeled peptide plus mediator; described in present tense
Experimental: as §1
Cyclic voltammograms were collected using an EG&G PAR 273A potentiostat/galvanostat with a single compartment voltammetric cell equipped with a modified tin-doped indium oxide (ITO) working electrode (area=0.32 cm^2), platinum (Pt)-wire counter electrode and silver/silver chloride (Ag/AgCl) reference electrode (see Johnston et al, 1994, Inorg. Chem. 33: 6388-6390). An example of such a voltammogram is shown in FIG. 7 and was generated under the following conditions. A sample containing 50 mM Ru(NH3)6^3+ and 20 mM Ru(NH3)5^3+-labeled peptide dissolved in buffered aqueous solutions containing 50 mM sodium phosphate buffer (pH 6.8)/700 mM NaCl (having a total sodium ion concentration of 780 mM) was scanned at a rate of 15 mV/s. […]

src SH3 domain = target: T2, src SH3 domain (Homo sapiens, UniProt P12931); experiment: Chronoamperometry of SA/B-HRP conjugated surrogate ligand binding to a src SH3 hydrogel electrode; details: 100 mV
T2 construct: The src SH3 domain was immobilized in a hydrogel as described above in Section A
Experimental: The electrochemical analytic methods and apparati of the invention are used to detect protein:peptide interactions in a complex mixture. A variety of different target molecules and purchased from Polysciences (Warrington, Pa.). The redox polymer poly(1-vinylimidazole), modified with Os bipyridine redox centers (PVI-Os) was synthesized as described by Ohara et al. (1993, Anal. Chem. 65: 3512-3517). Specifically, hydrogels were prepared by mixing together 5 μL of each of the following solutions: a solution of a first member of a biological binding pair, typically comprising a receptor protein or fragment at a concentration of 4-6 mg/mL protein; 10 mg/mL PVI-Os, and 2.5 mg/mL PEGDGE. A 1 μL aliquot of the mixture was then spread on the surface of the glassy carbon electrodes. The hydrogel coated electrodes were cured overnight at room temperature prior to use.
The src SH3 domain was immobilized in a hydrogel as described above in Section A. This electrode was then used for electrochemical detection of surrogate ligand binding using a surrogate ligand prepared as follows.
A complex of streptavidin (SA) (Sigma Chemical Co., St. Louis, Mo.), biotinylated horseradish peroxidase (B-HRP) (Sigma) and biotinylated src SH3 surrogate ligand (His-Gly-Ser-Gly-Ser-Phe-Ser-His-Pro-Gln-Asn-Thr; SEQ ID No. 2) was prepared as follows. […]

[2] = test system: Tyrosine aminoacyl tRNA synthetase (tyrRS); experiment: Chronoamperometry of SA/B-HRP conjugated surrogate ligand binding to, and inhibitor displacement from, a tyrRS hydrogel electrode

streptavidin, sequence (P22629 25-183): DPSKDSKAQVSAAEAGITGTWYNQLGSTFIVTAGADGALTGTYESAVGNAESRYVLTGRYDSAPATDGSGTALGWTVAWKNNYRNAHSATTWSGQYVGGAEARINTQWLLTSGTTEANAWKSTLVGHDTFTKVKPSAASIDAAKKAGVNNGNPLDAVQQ
MDM2, sequence (Q00987 whole entry, species assumed): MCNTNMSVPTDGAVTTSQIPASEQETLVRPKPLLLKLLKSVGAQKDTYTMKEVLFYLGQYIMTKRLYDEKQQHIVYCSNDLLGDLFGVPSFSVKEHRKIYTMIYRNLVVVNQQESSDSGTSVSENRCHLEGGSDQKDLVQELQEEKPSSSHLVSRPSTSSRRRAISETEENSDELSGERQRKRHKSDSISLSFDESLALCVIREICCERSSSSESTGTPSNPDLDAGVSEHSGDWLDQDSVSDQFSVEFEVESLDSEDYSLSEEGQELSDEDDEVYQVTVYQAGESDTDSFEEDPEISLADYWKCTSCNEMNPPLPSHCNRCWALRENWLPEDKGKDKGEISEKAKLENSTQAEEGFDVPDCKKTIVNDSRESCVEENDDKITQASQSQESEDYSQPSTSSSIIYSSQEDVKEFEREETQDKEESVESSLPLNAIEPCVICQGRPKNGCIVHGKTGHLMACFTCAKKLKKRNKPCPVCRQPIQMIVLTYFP

Substance | specific cyclic voltammetry signal at GST-Src SH3 electrode [1] | specific cyclic voltammetry signal at streptavidin electrode (streptavidin) | other results
Biotin-HHSGSGSQTFSDLWKL [p53 peptide] | No specific interaction is detected | No specific interaction is detected | specific cyclic voltammetry signal at MDM2 electrode (MDM2): Specific signals are detected
Gly-His-Gly-Ser-Gly-Arg-Ala-Leu-Pro-Pro-Leu-Pro-Arg-Tyr-NH2 (GHGSGRALPPLPRY-NH2) [NPDF-1] | Specific signals are detected | no specific signal is detected | integrated cyclic voltammetry signal, mediator background subtracted ([1]; GST-Src SH3 coated electrode compared with GST alone, Ru-labeled peptide, hexaamineruthenium(III) mediator, 2 hours incubation): much higher signal
HGSGSFSHPQNT [src SH3 surrogate ligand] | – | – | time at which current reaches plateau (src SH3 domain; 100 μM H2O2, ligand added at t=600 sec (FIG. 8)): 1500 to 2000 s; current upon addition of SA/B-HRP conjugated surrogate ligand (src SH3 domain; 100 μM H2O2, ligand added at t=600 sec to 1 μg/mL SA (FIG. 8)): an increase in current was detected
HGSGSFSHPQNT [streptavidin binding peptide] | no specific signal is detected | Specific signals are detected | –
LYSWPDEQYERPSGSGK [tyrRS surrogate ligand] | – | – | binding rate constant (first order) for the tyrRS-surrogate ligand binding reaction ([2]; from the single-exponential current rise of FIG. 9): 0.0012 s⁻¹; current upon addition of SA/B-HRP conjugated surrogate ligand ([2]; tyrRS hydrogel electrode, conditions as for src SH3 (FIG. 9)): current was detected
